# Literature values in patent US7618664B2 (Cooperatieve Verkoop-en Productievereniging Van …, priority 2001, dated 2009).
# Conditions: human body
substance,measurement,value
calcium gluconate,toxicity,essentially not show any toxicity
